From the NIST ThermoML archive (doi:10.1016/j.fluid.2013.12.015)
± gives the expanded uncertainty stated by the source.

Conditions: Liquid, Closed cell (Static) method

Structure (SMILES)	vapor or sublimation pressure (283.15 K)	vapor or sublimation pressure (293.15 K)	vapor or sublimation pressure (303.15 K)	vapor or sublimation pressure (313.15 K)	vapor or sublimation pressure (323.15 K)
C=C(F)C(F)(F)F [2,3,3,3-tetrafluoro-1-propene]	436.5 ± 7 kPa	591 ± 7.1 kPa	780.5 ± 7.1 kPa	1015.6 ± 7.2 kPa	1300.7 ± 7.2 kPa
CC(C)C [2-methylpropane]	222.2 ± 7 kPa	303.3 ± 7 kPa	406 ± 7 kPa	530.3 ± 7 kPa	684.4 ± 7.1 kPa
